Tests used:
[1] = system: mock-transfected CHO cells; assay: cAMP and IP release in mock-transfected CHO cells; assay type: cell-based, Chinese hamster
Experimental: (§1) CHO cells are grown on 150 mm plates in HAM's F-12 medium with supplements (10% bovine calf serum, 4 mM L-glutamine and 100 units/ml penicillin/100 μg/ml streptomycin) at 37° C., 5% CO2. Stock plates of CHO cells are trypsinized and split 1:8 every 3–4 days.
(§2) A typical protocol for the electroporation method as applied to Cos-7 cells is described as follows. Cells to be used for transfection are split 24 hours prior to the transfection to provide flasks which are subconfluent at the time of transfection. The cells are harvested by trypsinization resuspended in their growth media and counted. 5×10^6 cells are suspended in 300 μl of DMEM and placed into an electroporation cuvette. 8 μg of receptor DNA plus 8 μg of any additional DNA needed (e.g. G protein expression vector, reporter construct, antibiotic resistance marker, mock vector, etc.) is added to the cell suspension, the cuvette is placed into a BioRad Gene Pulser and subjected to an electrical pulse (Gene Pulser settings: 0.25 kV voltage, 950 μF capacitance). […]
(§3) The receptor-mediated stimulation or inhibition of cyclic AMP (cAMP) formation may be assayed in cells expressing the receptors. […] The plates are stored at 4° C. for 15 min, and the cAMP content in the stopping solution is measured by radioimmunoassay. Radioactivity may be quantified using a gamma counter equipped with data reduction software. […]

[2] = target: T1, dopamine D1 receptor (Homo sapiens, UniProt P21728); assay: cAMP in Cos-7 cells transfected with dopamine D1 receptor; assay type: cell-based; conditions: 10 μM, dopamine D1 (FIG. 7)
T1 construct: expressed in transfected cells; host or cells: Cos-7 cells
T1 sequence (P21728 whole entry): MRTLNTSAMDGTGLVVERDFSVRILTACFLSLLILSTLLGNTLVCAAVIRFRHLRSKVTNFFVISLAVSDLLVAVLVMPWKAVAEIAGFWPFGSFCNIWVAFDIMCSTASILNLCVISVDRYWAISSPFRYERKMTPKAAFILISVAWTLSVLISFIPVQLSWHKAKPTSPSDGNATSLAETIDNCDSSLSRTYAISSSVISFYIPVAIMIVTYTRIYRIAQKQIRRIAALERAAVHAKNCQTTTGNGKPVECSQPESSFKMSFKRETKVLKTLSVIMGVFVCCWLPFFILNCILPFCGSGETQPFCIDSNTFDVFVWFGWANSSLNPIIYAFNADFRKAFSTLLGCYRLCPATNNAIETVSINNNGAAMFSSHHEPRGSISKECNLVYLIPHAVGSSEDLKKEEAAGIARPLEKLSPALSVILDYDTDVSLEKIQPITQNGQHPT
Experimental: as §2, with “capacitance). Following the pulse, 800 μl of complete DMEM is added to each cuvette and the suspension transferred to a sterile tube. Complete medium is added to each tube to bring the final cell concentration to 1×10^5 cells/100 μl.” for “capacitance).”
as §3

[3] = target: T2, SNORF25 (Homo sapiens, UniProt Q8TDV5); assay: Stimulation of cAMP release by CHO cells stably expressing hSNORF25 receptors; assay type: cell-based; set-up: expressed in transfected cells
T2 sequence (Q8TDV5 1-335): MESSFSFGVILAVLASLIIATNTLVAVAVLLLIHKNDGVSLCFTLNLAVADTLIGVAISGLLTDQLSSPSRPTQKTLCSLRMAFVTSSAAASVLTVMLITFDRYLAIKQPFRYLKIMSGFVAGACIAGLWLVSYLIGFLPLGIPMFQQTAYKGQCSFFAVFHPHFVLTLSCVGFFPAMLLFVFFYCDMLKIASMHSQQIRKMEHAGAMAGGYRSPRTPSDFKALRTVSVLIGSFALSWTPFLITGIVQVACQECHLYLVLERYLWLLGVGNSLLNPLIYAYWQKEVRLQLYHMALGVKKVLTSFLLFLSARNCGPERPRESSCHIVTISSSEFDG
Experimental: as §1
Heterologous DNA can be stably incorporated into host cells, causing the cell to perpetually express a foreign protein. Methods for the delivery of the DNA into the cell are similar to those described above for transient expression but require the co-transfection of an ancillary gene to confer drug resistance on the targeted host cell. The ensuing drug resistance can be exploited to select and maintain cells that have taken up the DNA. An assortment of resistance genes are available including but not restricted to neomycin, kanamycin, and hygromycin. For the purposes of studies concerning the receptor of this invention, stable expression of a heterologous receptor protein is typically carried out in, mammalian cells including but not necessarily restricted to, CHO, HEK293, LM(tk−), etc.
(§4) The receptor-mediated stimulation or inhibition of cyclic AMP (cAMP) formation may be assayed in cells expressing the receptors. According to one method, cells are plated in 96-well plates or other vessels and preincubated in a buffer such as HEPES buffered saline (NaCl (150 mM), CaCl2 (1mM), KCl (5 mM), glucose (10 mM)) supplemented with a phosphodiesterase inhibitor such as 5 mM theophylline, with or without protease inhibitor cocktail (For example, a typical inhibitor cocktail contains 2 μg/ml aprotinin, 0.5 mg/ml leupeptin, and 10 μg/ml phosphoramidon.) for 20 min at 37° C., in 5% CO2. Test compounds are added with or without […] and incubated for an additional 10 min at 37° C. The medium is then aspirated and the reaction stopped by the addition of 100 mM HCl or other methods. The plates are stored at 4° C. for 15 min, and the cAMP content in the stopping solution is measured by radioimmunoassay. Radioactivity may be quantified using a gamma counter equipped with data reduction software. Specific modifications may be performed to optimize the assay for the receptor or to alter the detection method of cAMP.
as §4, with “According” for “The receptor-mediated stimulation or inhibition of cyclic AMP (cAMP) formation may be assayed in cells expressing the receptors. According”, “a second” for “one”, “washed 2 times with” for “plated in 96-well plates or other vessels and preincubated in a buffer such as”, “saline, as described above, and incubated overnight. On the day of the experiment, cells are washed 2 times with HEPES” for “saline (NaCl (150 mM), CaCl2 (1mM), KCl (5 mM), glucose (10 mM))”
Several other closely related analogues of PAF namely Lyso-PAF with different carbon chains also stimulated cAMP.

cAMP response [2]: no response
potency lower than PAF(C18) ([3]; cAMP release, SNORF25 stable CHO cells (FIG. 11B)): ~3 fold
% of PAF(C18) Response ([3]; maximum response as % of maximum response produced by PAF(C18) (taken as 100%)): 105%
EC50 ([3]; mean ± S.E.M., at least 3 experiments, CHO cells stably expressing hSNORF25): 1440 ± 652 nM
Compound: CC1=C(/C=C/C(C)=C/C=C/C(C)=C/C(=O)O)C(C)(C)CCC1 [ATRA, all-trans-retinoic acid]
cAMP and IP release in mock-transfected CHO cells [1]: without affecting these parameters

Source: patent publication US7416848B2, “DNA encoding SNORF25 receptor” (H. Lundbeck A/S, priority 1999, dated 2008)
